Test results taken from patent publication US6607906B1, “Heterologous G protein coupled receptors expressed in yeast, their fusion with G proteins and use thereof in bioassay” (priority 1994, dated 2003).
Where two headings read alike, the source gives them in different places. Values belong to the compound of their own block, whether it stands above or below them. Residues, ends and D or L forms follow the SMILES beside them.

Assays:
[1] = molecular target: T1, rat SSTR2 somatostatin receptor subtype (Rattus norvegicus, UniProt P30680); assay: Binding of radiolabeled somatostatin 14 to membranes of yeast expressing SSTR2; conditions: for percent radioligand bound compared to untreated samples, +Gpp(NH)p: Gpp(NH)p 100 μM
T1 construct: expressed in transfected cells; host or cells: Saccharomyces cerevisiae YPH500 derivatives CY624 (Gαi2), CY602 (Gαs), CY603 (Scg1); crude membranes
T1 sequence (P30680 with tags, fused parts or gaps limits assumed): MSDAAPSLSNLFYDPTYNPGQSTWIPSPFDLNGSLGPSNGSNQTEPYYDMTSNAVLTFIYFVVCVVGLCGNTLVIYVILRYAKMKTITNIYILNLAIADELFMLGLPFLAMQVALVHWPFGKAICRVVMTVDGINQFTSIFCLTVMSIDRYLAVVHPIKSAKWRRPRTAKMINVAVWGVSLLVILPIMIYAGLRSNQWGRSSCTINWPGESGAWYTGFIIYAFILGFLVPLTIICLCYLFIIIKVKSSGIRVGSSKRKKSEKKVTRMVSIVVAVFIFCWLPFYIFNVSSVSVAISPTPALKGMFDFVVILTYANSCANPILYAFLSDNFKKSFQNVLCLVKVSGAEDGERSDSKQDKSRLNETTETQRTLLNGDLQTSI

rat CCKB receptor [2] = molecular target: T2, rat CCKB receptor (Rattus norvegicus, UniProt P30553); assay: Radiolabeled agonist saturation binding of 3H-CCK-8, yeast membranes (LY631); conditions: GppNHp 100 μM, LY631 crude membranes
T2 construct: expressed in transfected cells; host or cells: Saccharomyces cerevisiae LY296 derivatives LY631 (Gpa1-Gαs chimera, pLP122) and LY628 (Gpa1-Gαi2 chimera, pLP121)
T2 sequence (P30553 1-452): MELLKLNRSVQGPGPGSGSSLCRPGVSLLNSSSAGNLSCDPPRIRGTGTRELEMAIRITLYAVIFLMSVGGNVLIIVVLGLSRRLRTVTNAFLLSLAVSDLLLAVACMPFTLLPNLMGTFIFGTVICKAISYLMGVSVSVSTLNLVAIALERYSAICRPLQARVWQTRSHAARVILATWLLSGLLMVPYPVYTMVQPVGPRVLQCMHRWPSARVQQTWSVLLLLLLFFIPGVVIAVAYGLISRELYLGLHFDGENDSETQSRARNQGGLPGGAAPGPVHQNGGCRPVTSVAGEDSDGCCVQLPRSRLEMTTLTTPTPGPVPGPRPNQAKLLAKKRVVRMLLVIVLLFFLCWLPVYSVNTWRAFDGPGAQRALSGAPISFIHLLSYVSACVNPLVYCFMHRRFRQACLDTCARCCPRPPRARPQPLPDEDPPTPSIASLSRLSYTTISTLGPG

human 5HTla receptor = molecular target: T3, human 5HTla receptor (Homo sapiens, UniProt P08908); assay: Saturation binding of 3H-spiperone to yeast membrane fractions (strain CY382, pCHI11)
T3 construct: first 14 amino acids of yeast Ste2 (N); expressed in transfected cells; host or cells: Saccharomyces cerevisiae strain CY382 (plasmid pCHI11), membrane fractions
T3 sequence (P08908 with tags, fused parts or gaps): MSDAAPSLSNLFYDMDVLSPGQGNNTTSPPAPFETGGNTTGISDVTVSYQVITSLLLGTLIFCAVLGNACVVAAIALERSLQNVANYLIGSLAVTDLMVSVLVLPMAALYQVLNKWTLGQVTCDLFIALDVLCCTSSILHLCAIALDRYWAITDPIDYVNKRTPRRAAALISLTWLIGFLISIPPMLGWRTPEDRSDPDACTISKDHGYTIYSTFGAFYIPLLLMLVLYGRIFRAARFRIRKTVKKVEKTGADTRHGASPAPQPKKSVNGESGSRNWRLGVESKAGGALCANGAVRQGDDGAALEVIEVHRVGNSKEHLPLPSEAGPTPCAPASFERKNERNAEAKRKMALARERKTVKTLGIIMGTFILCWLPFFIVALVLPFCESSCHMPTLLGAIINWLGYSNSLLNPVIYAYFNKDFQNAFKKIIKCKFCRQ

porcine SSTR2 = assay: Agar plate growth bioassay, yeast expressing porcine SSTR2 (LY474); type: cell-based
rat SSTR5 = molecular target: T4, rat SSTR5 (Rattus norvegicus, UniProt P30938); assay: Agar plate growth bioassay, yeast expressing SSTR5 (LY620); type: cell-based
T4 construct: expressed in transfected cells; host or cells: Saccharomyces cerevisiae LY620 (LY296 with pJH19 and pLP121 Gpa1-Gαi2)
T4 sequence (P30938 1-363): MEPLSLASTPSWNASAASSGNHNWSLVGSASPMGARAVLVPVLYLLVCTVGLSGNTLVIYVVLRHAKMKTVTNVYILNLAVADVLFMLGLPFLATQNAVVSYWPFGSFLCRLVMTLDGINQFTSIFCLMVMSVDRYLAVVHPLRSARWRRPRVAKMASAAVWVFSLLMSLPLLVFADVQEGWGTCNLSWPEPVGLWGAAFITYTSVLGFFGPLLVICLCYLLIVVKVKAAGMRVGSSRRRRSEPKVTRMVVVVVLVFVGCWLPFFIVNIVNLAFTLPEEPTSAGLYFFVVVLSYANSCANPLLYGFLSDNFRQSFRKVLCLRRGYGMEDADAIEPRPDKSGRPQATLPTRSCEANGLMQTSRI

human GRF receptor = molecular target: T5, human GRF receptor (Homo sapiens, UniProt Q02643); assay: Agar plate growth bioassay, yeast expressing GRF receptor (CY990); type: cell-based
T5 construct: expressed in transfected cells; host or cells: Saccharomyces cerevisiae CY990 (LY296 with pJH25 and pLP122 Gpa1-Gαs)
T5 sequence (Q02643 23-423): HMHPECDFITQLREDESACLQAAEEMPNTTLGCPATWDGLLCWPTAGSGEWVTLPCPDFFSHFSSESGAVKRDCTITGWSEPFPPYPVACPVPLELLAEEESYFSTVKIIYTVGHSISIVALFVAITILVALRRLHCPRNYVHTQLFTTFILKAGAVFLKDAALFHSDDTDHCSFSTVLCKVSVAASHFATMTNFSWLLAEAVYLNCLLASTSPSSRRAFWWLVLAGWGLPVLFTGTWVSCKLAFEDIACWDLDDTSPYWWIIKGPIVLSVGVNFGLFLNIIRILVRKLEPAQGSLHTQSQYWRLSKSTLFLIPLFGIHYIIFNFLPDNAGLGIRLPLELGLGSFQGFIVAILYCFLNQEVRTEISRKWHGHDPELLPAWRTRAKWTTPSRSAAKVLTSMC

rat CCKB receptor [3] = molecular target: T2, rat CCKB receptor; assay: Agar plate growth bioassay, yeast expressing CCKB receptor (LY628, LY631); type: cell-based
rat CCKB receptor (rat) = rat CCKB receptor (rat) (UniProt P30553); assay: cell-based or functional assay
[4] = molecular target: rat SSTR2 somatostatin receptor subtype (rat) (UniProt P30680); assay: saturation radioligand binding, membranes of yeast coexpressing SSTR2 and Scg1/Gαi2
Chain of rat SSTR2 somatostatin receptor subtype (rat) (P30680 whole entry): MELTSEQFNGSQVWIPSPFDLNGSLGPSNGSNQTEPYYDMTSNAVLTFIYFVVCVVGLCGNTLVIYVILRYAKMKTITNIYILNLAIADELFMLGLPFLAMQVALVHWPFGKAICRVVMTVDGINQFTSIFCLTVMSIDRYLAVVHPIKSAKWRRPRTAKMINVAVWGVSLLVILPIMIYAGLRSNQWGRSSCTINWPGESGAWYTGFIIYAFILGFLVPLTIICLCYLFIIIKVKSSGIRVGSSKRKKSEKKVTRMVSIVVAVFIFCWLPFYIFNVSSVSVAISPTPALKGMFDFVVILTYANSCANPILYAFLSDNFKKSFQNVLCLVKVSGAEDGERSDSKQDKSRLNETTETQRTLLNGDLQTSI

[5] = molecular target: rat SSTR2 somatostatin receptor subtype (rat) (UniProt P30680); assay: maximal radioligand binding, crude membranes of yeast strain CY603 (SSTR2 with Scg1)
[6] = molecular target: porcine SSTR2 expressed from plasmid pJH17 (porcine) (UniProt P34994); assay: saturation radioligand binding, crude membranes of yeast cells bearing pJH17
[7] = molecular target: rat SSTR2 somatostatin receptor subtype (rat) (UniProt P30680); assay: radioligand binding with Gpp(NH)p (100 µM), crude membranes of yeast strain CY603 (SSTR2 with Scg1)
[8] = molecular target: rat SSTR2 somatostatin receptor subtype (rat) (UniProt P30680); assay: maximal radioligand binding, crude membranes of yeast strain CY602 (SSTR2 with Gαs)
[9] = molecular target: rat SSTR2 somatostatin receptor subtype (rat) (UniProt P30680); assay: radioligand binding with Gpp(NH)p (100 µM), crude membranes of yeast strain CY602 (SSTR2 with Gαs)
[10] = molecular target: rat SSTR2 somatostatin receptor subtype (rat) (UniProt P30680); assay: radioligand binding with Gpp(NH)p (100 µM), crude membranes of yeast strain CY624 (SSTR2 with Gαi2)
[11] = molecular target: rat SSTR2 somatostatin receptor subtype (rat) (UniProt P30680); assay: maximal radioligand binding, crude membranes of yeast strain CY624 (SSTR2 with Gαi2)
[12] = molecular target: human GRF receptor (human) (UniProt Q02643); assay: cell-based or functional assay
rat SSTR2 = rat SSTR2 (Rattus norvegicus, UniProt P30680); type: cell-based
Chain of rat SSTR2 (P30680 whole entry): as above

[13] = LY628 and LY631 cells, 30° C., 3 days

Compound: C[N+](C)(C)CCOC(N)=O [carbachol]
- growth response (porcine SSTR2; LY474 cells, 3 days): not observed
- growth response (rat SSTR5; LY620 cells, 3 days): not observed
- growth response (human GRF receptor; CY990 cells, 3 days): not observed
- growth response (rat CCKB receptor [3]; [13]): not observed

Compound: CCK-4 (from UniProt P06307 100-103) (peptide)
- amount giving a detectable growth response (rat CCKB receptor (rat)): 10 µg

Compound: [^125I-tyr^11]-somatostatin 14 (from UniProt P61278 103-116) (peptide)
- Kd [4]: 0.5 nM
- Bmax (fmol/mg total protein) [5]: 24.7
- Bmax [6]: 146 fmol/mg
- percent radioligand bound with Gpp(NH)p compared to untreated samples [7]: 4%
- Bmax (fmol/mg total protein) [8]: 13.7
- percent radioligand bound with Gpp(NH)p compared to untreated samples [9]: 0%
- percent radioligand bound with Gpp(NH)p compared to untreated samples [10]: 22%
- Bmax (fmol/mg total protein) [11]: 94.5

Compound: hGRF (1-29)-NH2 (from UniProt P01286 32-60) (peptide)
- amount giving a detectable growth response, strain CY990 [12]: 20 nmol

Compound: met-enkephalin: an opiate receptor agonist
- growth response (halo) around disks (rat SSTR2): No detectable response
- growth response (porcine SSTR2): not observed
- growth response (rat SSTR5): not observed
- growth response (human GRF receptor): not observed
- growth response (rat CCKB receptor [3]): not observed

Compound: sandostatin
- diameter of the growth zones, rank order (porcine SSTR2): S-14=MK678>sandostatin
- growth response (porcine SSTR2): dose-dependent growth response

Second part, led by results:

- percent radioligand bound compared to untreated samples, +Gpp(NH)p ([1]; strain CY602, Gαs): 0%
- percent radioligand bound compared to untreated samples, +Gpp(NH)p ([1]; strain CY603, Scgl): 4%
- percent radioligand bound compared to untreated samples, +Gpp(NH)p ([1]; strain CY624, Gαi): 22%
- decrease of specific binding of 3H-CCK-8 (rat CCKB receptor [2]): greater than 50%
Compound: Nc1nc2c(ncn2[C@@H]2O[C@H](COP(=O)(O)OP(=O)(O)NP(=O)(O)O)[C@@H](O)[C@H]2O)c(=O)[nH]1 [Gpp (NH) p]

- Bmax ([1]; strain CY602, Gαs): 13.7 fmol/mg total protein
- Bmax ([1]; strain CY603, Scgl): 24.7 fmol/mg total protein
- Bmax ([1]; strain CY624, Gαi): 94.5 fmol/mg total protein
- Kd ([1]; yeast coexpressing Scgl/Gαi2, read-out: calculated Kd): 0.5 nM
Compound: C[C@H](N)C(=O)NCC(=O)N[C@H]1CSSC[C@@H](C(=O)O)NC(=O)[C@H](CO)NC(=O)[C@H]([C@@H](C)O)NC(=O)[C@H](Cc2ccc(O)c(I)c2)NC(=O)[C@H]([C@@H](C)O)NC(=O)[C@H](CCCCN)NC(=O)[C@H](Cc2c[nH]c3ccccc23)NC(=O)[C@H](Cc2ccccc2)NC(=O)[C@H](Cc2ccccc2)NC(=O)[C@H](CC(N)=O)NC(=O)[C@H](CCCCN)NC1=O [[^125I]tyr^11S-14] (HELM PEPTIDE1{A.G.C.K.N.F.F.W.K.T.[O=C([C@H](Cc1ccc(O)c(I)c1)N[*:1])[*:2]].T.S.C}$PEPTIDE1,PEPTIDE1,3:R3-14:R3$$$V2.0; N-terminus and C-terminus assumed; bridges inferred)

- Bmax (human 5HTla receptor; saturation binding, strain CY382): 3.2 pmol/mg protein
- Bmax (human 5HTla receptor; strain carrying pCHI11): 3.1 pmol/mg
Compound: O=C(CCCN1CCC2(CC1)C(=O)NCN2c1ccccc1)c1ccc(F)cc1 [^3H-spiperone, spiperone]

- growth response (rat SSTR5; LY620 cells, 3 days): not observed
- growth response (human GRF receptor; CY990 cells, 3 days): not observed
- growth response (rat CCKB receptor [3]; [13]): not observed
Compound: CC(C)NCC(O)c1ccc(O)c(O)c1 (centres unmarked) [isoproterenol]
- growth response (porcine SSTR2; LY474 cells, 3 days): not observed

- growth response (rat SSTR5; LY620 cells, 3 days): not observed
- growth response (human GRF receptor; CY990 cells, 3 days): not observed
- growth response (rat CCKB receptor [3]; [13]): not observed
Compound: Cc1cc(C(C)(C)C)c(O)c(C)c1CC1=NCCN1 [oxymetazoline]
- growth response (porcine SSTR2; LY474 cells, 3 days): not observed

- amount giving a detectable response (rat CCKB receptor [3]): 10 µg
- diameter of the growth zones, rank order (rat CCKB receptor [3]): CCK-8>gastrin>CCK-4
- growth response (rat CCKB receptor [3]; [13]): dose-dependent growth response
Compound: CCK-4: cholecystokinin

- amount giving a detectable response (human GRF receptor): 20 nmol
- growth response (human GRF receptor; CY990 cells, 3 days): dose-dependent growth response
Compound: hGRF (1-29)-NH2: an agonist analog of GRF
